Columns and labels:
DYRK1 = DYRK1 (Homo sapiens, UniProt Q13627); assay: Kinase HotSpot service (Reaction Biology Corporation), DYRK1; format: biochemical; details: ATP 10 uM, read-out: DYRK1 IC50 (values indicated by *)
Procedure: (§1) The inhibitory activities of the compounds were measured at a 3-fold concentration gradient starting from a maximum compound concentration of […], and the values measured using the Kinase HotSpot service (Reaction Biology Corporation) are indicated by an asterisk (*).
(§2) All the experimental methods were performed as provided by the Kinase HotSpot Customer Protocol (http://www.reactionbiology.com//Kinase_Assay_Protocol).

DYRK1A = target: T1, DYRK1A (Homo sapiens, UniProt Q13627); assay: ScanMAX Kinase analysis panel, DYRK1A; format: binding; details: 1 μM in DMSO; <35% considered inhibitory; read-out: percent control (% control), DYRK1A
T1 construct: purchased DiscoverX Corp. (ScanMAX Kinase analysis panel, service)
Procedure: (§3) Specifically, the enzyme (kinase) selectivity of Example compounds 238, 361, 411, 157, 161, 228, and 158 selected from the Example compounds of the present invention was determined by commissioning DiscoverX Corp., and an experiment was performed using a ScanMAX™ Kinase analysis panel. In this case, a concentration of the drug with which the enzymes were treated was 1 μM in DMSO, and the percent control (% control) was defined in the same manner as in the following Expression 1.
(§4) (Example Compound−Positive Control)/(Negative Control−Positive Control)×100 [Expression 1]
(§5) wherein the positive control represents a compound having a percent control of 0%, and the negative control represents DMSO having a percent control of 100%. For the enzyme selectivity of the present invention, it was considered that the compound has an inhibitory activity on each of the enzymes when the percent control for the corresponding enzyme was <35% (i. e., less than 35%).

CLK3 = target: T2, CLK3 (Homo sapiens, UniProt P49761); assay: ScanMAX Kinase analysis panel, CLK3; format: binding; details: 1 μM in DMSO; <35% considered inhibitory; read-out: percent control (% control), CLK3
T2 construct: purchased DiscoverX Corp. (ScanMAX Kinase analysis panel, service)
T2 sequence (P49761 whole entry): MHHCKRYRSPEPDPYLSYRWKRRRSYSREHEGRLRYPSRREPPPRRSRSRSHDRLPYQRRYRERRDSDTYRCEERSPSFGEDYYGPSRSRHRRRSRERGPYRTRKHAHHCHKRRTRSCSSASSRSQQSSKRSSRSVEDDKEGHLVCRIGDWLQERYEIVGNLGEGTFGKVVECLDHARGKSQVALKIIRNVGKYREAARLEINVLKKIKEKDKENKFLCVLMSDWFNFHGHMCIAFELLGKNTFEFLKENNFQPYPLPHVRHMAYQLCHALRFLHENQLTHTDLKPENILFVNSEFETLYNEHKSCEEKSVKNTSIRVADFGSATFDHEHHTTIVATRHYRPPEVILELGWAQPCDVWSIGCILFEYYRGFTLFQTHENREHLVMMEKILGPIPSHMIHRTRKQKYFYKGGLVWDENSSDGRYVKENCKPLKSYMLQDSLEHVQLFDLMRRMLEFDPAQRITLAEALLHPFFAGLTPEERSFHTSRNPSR
Procedure: as §3, §4, §5

CSNK1E = target: T3, CSNK1E (Homo sapiens, UniProt P49674); assay: ScanMAX Kinase analysis panel, CSNK1E; format: binding; details: 1 μM in DMSO; <35% considered inhibitory; read-out: percent control (% control), CSNK1E
T3 construct: purchased DiscoverX Corp. (ScanMAX Kinase analysis panel, service)
T3 sequence (P49674 whole entry): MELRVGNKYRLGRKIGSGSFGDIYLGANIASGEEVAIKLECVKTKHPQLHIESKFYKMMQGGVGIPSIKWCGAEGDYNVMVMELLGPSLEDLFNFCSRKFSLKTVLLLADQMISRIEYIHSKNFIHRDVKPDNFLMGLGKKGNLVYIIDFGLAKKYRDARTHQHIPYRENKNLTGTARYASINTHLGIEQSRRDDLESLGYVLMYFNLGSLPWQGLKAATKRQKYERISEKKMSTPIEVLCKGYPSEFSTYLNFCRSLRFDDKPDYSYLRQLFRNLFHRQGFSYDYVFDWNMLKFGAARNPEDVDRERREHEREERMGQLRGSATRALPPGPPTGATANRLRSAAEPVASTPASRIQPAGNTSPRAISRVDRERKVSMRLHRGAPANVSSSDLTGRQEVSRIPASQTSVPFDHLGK
Procedure: as §3, §4, §5

CLK4 = target: T4, CLK4 (Homo sapiens, UniProt Q9HAZ1); assay: ScanMAX Kinase analysis panel, CLK4; format: binding; details: 1 μM in DMSO; <35% considered inhibitory; read-out: percent control (% control), CLK4
T4 construct: purchased DiscoverX Corp. (ScanMAX Kinase analysis panel, service)
T4 sequence (Q9HAZ1 whole entry): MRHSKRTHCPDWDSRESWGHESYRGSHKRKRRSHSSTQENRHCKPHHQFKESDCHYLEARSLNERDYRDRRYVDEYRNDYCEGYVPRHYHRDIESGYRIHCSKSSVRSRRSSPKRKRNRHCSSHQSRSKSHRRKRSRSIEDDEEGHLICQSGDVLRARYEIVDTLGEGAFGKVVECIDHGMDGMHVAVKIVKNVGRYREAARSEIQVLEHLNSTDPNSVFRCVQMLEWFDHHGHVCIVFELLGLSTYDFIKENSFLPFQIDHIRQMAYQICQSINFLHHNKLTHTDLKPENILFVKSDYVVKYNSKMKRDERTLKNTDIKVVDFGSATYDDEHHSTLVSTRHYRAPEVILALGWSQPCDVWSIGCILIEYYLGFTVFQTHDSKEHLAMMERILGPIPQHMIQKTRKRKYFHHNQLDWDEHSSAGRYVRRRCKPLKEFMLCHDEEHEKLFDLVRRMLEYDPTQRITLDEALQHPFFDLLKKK
Procedure: as §3, §4, §5

PYK2 = target: T5, PYK2 (Homo sapiens, UniProt Q14289); assay: ScanMAX Kinase analysis panel, PYK2; format: binding; details: 1 μM in DMSO; <35% considered inhibitory; read-out: percent control (% control), PYK2
T5 construct: purchased DiscoverX Corp. (commissioned ScanMAX panel service)
T5 sequence (Q14289 whole entry): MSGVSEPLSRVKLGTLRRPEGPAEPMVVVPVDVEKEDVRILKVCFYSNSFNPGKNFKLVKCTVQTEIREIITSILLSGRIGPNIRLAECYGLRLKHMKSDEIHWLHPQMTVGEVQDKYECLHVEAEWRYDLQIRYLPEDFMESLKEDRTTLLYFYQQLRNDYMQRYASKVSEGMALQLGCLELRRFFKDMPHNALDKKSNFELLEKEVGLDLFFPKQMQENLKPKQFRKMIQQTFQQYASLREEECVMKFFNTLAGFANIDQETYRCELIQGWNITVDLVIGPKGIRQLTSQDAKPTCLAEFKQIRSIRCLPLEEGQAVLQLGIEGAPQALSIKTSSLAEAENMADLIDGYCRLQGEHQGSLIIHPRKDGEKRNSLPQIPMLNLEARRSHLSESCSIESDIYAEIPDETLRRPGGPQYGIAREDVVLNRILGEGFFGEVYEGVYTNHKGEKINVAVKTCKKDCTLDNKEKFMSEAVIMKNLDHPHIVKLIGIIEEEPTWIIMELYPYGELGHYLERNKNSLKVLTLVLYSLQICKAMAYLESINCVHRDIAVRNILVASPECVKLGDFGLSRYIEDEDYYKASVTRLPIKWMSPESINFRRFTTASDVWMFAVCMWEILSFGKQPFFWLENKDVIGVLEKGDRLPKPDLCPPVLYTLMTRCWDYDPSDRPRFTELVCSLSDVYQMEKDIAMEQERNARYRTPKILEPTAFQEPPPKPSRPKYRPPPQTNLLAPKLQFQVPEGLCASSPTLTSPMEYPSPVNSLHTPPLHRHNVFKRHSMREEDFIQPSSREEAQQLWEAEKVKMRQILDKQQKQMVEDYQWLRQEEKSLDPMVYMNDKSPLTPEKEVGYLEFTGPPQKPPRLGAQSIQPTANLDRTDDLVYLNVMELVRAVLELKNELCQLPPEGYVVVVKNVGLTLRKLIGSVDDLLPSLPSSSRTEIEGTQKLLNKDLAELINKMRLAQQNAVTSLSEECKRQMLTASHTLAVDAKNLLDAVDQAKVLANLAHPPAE
Procedure: as §3, §4, §5

LRRK2 [1] = target: T6, LRRK2 (Homo sapiens, UniProt Q5S007); assay: ScanMAX Kinase analysis panel, LRRK2; format: binding; set-up: purchased DiscoverX Corp. (ScanMAX Kinase analysis panel, service); details: 1 μM in DMSO; <35% considered inhibitory; read-out: percent control (% control), LRRK2
T6 sequence (Q5S007 whole entry): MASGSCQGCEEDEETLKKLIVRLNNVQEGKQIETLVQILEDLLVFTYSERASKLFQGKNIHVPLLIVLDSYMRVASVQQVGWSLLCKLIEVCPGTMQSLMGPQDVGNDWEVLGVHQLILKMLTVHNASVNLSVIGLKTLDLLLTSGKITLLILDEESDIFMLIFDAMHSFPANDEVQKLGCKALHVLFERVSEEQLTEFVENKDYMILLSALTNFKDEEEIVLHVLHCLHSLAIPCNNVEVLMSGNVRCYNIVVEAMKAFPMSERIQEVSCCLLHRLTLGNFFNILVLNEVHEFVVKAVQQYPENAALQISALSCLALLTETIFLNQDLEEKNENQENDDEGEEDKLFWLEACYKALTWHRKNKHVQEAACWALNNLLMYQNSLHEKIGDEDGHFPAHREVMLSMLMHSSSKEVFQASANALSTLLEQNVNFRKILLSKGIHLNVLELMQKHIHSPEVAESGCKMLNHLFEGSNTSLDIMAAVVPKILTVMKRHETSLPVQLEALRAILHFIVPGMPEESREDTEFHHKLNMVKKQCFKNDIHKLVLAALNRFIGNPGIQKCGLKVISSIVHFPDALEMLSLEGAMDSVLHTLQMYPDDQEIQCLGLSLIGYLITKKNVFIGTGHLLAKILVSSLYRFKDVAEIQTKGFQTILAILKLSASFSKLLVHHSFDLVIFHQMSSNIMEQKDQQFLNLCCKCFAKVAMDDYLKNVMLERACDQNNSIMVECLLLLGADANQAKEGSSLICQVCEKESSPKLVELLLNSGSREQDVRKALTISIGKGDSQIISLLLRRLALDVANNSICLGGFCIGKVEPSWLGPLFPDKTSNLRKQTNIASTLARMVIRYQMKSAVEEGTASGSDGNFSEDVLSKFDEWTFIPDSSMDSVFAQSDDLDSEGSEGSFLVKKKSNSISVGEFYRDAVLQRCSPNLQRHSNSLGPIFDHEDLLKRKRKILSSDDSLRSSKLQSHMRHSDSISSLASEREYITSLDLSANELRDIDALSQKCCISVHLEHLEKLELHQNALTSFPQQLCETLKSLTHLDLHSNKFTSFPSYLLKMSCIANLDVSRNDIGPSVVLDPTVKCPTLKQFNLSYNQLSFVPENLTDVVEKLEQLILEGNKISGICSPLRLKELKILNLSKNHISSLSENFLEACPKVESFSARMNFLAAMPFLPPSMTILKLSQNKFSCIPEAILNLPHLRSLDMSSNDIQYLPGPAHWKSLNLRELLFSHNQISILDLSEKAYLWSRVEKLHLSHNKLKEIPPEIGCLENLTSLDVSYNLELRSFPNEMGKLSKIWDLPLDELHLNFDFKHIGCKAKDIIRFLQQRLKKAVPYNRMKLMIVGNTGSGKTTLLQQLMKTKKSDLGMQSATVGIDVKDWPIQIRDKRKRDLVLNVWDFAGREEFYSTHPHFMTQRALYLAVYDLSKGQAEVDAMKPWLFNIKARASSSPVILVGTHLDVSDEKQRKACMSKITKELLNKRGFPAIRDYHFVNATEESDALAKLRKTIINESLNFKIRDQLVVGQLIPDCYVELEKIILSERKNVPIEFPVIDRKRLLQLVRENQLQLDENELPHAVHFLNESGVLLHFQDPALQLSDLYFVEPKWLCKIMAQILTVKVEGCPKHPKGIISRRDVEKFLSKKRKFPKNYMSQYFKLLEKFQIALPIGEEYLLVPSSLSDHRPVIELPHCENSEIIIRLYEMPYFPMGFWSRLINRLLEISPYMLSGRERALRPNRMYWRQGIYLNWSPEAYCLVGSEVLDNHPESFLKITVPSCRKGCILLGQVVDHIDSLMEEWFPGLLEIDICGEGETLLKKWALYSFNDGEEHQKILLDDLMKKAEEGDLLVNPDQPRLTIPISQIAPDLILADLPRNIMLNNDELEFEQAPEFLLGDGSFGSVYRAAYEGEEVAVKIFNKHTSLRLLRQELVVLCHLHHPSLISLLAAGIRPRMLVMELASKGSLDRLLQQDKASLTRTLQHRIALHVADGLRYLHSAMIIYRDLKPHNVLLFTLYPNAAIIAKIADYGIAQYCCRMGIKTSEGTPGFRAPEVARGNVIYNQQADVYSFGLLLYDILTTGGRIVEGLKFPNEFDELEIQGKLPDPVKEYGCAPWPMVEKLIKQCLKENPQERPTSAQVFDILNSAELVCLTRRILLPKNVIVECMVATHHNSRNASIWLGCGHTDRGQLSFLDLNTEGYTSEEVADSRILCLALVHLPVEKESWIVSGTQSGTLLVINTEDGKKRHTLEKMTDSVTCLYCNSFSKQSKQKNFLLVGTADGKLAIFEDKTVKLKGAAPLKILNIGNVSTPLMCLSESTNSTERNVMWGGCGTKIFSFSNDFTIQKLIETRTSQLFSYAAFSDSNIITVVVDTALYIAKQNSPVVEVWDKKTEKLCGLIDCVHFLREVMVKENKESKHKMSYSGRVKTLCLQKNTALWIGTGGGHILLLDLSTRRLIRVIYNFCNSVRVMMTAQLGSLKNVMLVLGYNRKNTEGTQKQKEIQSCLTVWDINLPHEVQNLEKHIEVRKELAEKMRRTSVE
Procedure: as §3, §4, §5

PHKG2 = target: T7, PHKG2 (Homo sapiens, UniProt P15735); assay: ScanMAX Kinase analysis panel, PHKG2; format: binding; details: 1 μM in DMSO; <35% considered inhibitory; read-out: percent control (% control), PHKG2
T7 construct: purchased DiscoverX Corp. (ScanMAX Kinase analysis panel, service)
T7 sequence (P15735 1-406): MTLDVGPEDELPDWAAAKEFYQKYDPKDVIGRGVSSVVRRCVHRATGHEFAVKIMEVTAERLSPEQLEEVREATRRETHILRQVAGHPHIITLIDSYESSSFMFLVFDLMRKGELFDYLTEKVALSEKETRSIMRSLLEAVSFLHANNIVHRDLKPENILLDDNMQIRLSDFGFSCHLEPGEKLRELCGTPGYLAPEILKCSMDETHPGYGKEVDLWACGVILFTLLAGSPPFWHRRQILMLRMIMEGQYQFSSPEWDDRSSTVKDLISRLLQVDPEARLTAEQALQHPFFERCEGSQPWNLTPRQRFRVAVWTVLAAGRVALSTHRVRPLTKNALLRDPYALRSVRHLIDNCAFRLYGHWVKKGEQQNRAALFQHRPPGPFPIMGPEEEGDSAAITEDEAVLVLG
Procedure: as §3, §4, §5

LRRK2 [2] = target: T6, LRRK2; assay: Kinase HotSpot service (Reaction Biology Corporation), LRRK2; format: biochemical; set-up: purchased DiscoverX Corp. (ScanMAX Kinase analysis panel, service); details: ATP 10 uM, read-out: LRRK2 IC50 (values indicated by *)
Procedure: as §1, §2

SHP-77 = assay: Inhibition of proliferation of SHP-77 cancer cells (Cell Titer-Glo); format: cell-based; details: Homo sapiens, SHP77, 72 hours
How it was run: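 Step one, seed 2,000 cells per well in DMEM or RPMI. Step two, add compound at 11 final concentrations (10 to 0.000169 μM, 3-fold series) and culture for 72 hours. Step three, add Cell Titer-Glo, wait 10 min at room temperature, read luminescence and calculate GI50.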

THP-1 cells = assay: THP-1 GI50 (Table 4, cytokine secretion experiment); format: cell-based; details: Homo sapiens
CLK1 = target: T8, CLK1 (Homo sapiens, UniProt P49759); assay: Kinase HotSpot service (Reaction Biology Corporation), CLK1; format: biochemical; details: ATP 10 uM, read-out: CLK1 IC50 (values indicated by *)
T8 construct: purchased DiscoverX Corp. (ScanMAX Kinase analysis panel, service)
Procedure: as §1, §2

Compound: CCN1CCP(=O)(c2ccc(Nc3nc(C4CC4)c4c(C#N)c[nH]c4n3)c(OC)c2)CC1 [Example 261]
- IC50 (DYRK1): < 100 nM

Compound: COc1cc(S(=O)(=O)N2CCOCC2)ccc1Nc1nc(C2CC2)c2c(C#N)c[nH]c2n1 [Example 223, 4-cyclopropyl-2-((2-methoxy-4-(morpholinosulfonyl)phenyl)amino)-7H-pyrrolo[2,3-d]pyrimidine-5-carbonitrile]
- IC50 (DYRK1): 101 to 300 nM

Compound: C=CCNc1nc(Nc2ccc(S(=O)(=O)N3CCC(N4CCOCC4)CC3)cc2OC)nc2[nH]cc(C#N)c12 [Example 361, 4-(allylamino)-2-((2-methoxy-4-((4-morpholino-piperidin-1-yl)sulfonyl)phenyl)amino)-7H-pyrrolo[2,3-d]pyrimidine-5-carbonitrile]
- remaining binding at 1 µM (DYRK1A): 2.6%
- remaining binding at 1 µM (CLK3): 21%
- remaining binding at 1 µM (CSNK1E): 0.05%
- remaining binding at 1 µM (CLK4): 2.8%
- remaining binding at 1 µM (PYK2): 2.2%
- remaining binding at 1 µM (LRRK2 [1]): 0%
- remaining binding at 1 µM (PHKG2): 3%

Compound: CNc1nc(Nc2ccc(C(=O)N3CCC(N4CCOCC4)CC3)c3c2OCCO3)nc2[nH]cc(C(F)(F)F)c12 [Example 238, (8-((4-(methylamino)-5-(trifluoromethyl)-7H-pyrrolo[2,3-d]pyrimidin-2-yl)amino)-2,3-dihydrobenzo[b][1,4]dioxin-5-yl)(4-morpholinopiperidin-1-yl)methanone]
- remaining binding at 1 µM (DYRK1A): 0.25%
- remaining binding at 1 µM (CLK3): 7.8%
- remaining binding at 1 µM (CSNK1E): 32%
- remaining binding at 1 µM (CLK4): 3.6%
- remaining binding at 1 µM (PYK2): 5.2%
- remaining binding at 1 µM (LRRK2 [1]): 0.45%
- remaining binding at 1 µM (PHKG2): 2.2%

Compound: CNc1nc(Nc2ccc(S(=O)(=O)N3CCC(N4CCOCC4)CC3)cc2OC)nc2[nH]cc(C(F)(F)F)c12 [Example 157, N^2-(2-methoxy-4-((4-morpholinopiperidin-1-yl)sulfonyl)phenyl)-N^4-methyl-5-(trifluoromethyl)-7H-pyrrolo[2,3-d]pyrimidine-2,4-diamine 2,2,2-trifluoroacetate]
- IC50 (LRRK2 [2]): < 100 nM
- remaining binding at 1 µM (DYRK1A): 0.05%
- remaining binding at 1 µM (CLK3): 3.7%
- remaining binding at 1 µM (CSNK1E): 2.4%
- GI50 (SHP-77): 301 to 1000 nM
- remaining binding at 1 µM (CLK4): 0.55%
- remaining binding at 1 µM (PYK2): 5.5%
- remaining binding at 1 µM (LRRK2 [1]): 0.7%
- remaining binding at 1 µM (PHKG2): 5.8%

Compound: COc1cc(S(=O)(=O)N2CCC(N3CCOCC3)CC2)ccc1Nc1nc(C2CC2)c2c(C(F)(F)F)c[nH]c2n1 [Example 226]
- IC50 (DYRK1): < 100 nM

Compound: CCNc1nc(Nc2ccc(S(=O)(=O)N3CCC(N4CCOCC4)CC3)cc2OC)nc2[nH]cc(C(F)(F)F)c12 [Example 158, N^4-ethyl-N^2-(2-methoxy-4-((4-morpholinopiperidin-1-yl)sulfonyl)phenyl)-5-(trifluoromethyl)-7H-pyrrolo[2,3-d]pyrimidine-2,4-diamine 2,2,2-trifluoroacetate]
- remaining binding at 1 µM (DYRK1A): 0.75%
- remaining binding at 1 µM (CLK3): 11%
- remaining binding at 1 µM (CSNK1E): 3.3%
- GI50 (SHP-77): 51 to 100 nM
- remaining binding at 1 µM (CLK4): 0.3%
- remaining binding at 1 µM (PYK2): 3%
- remaining binding at 1 µM (LRRK2 [1]): 0%
- remaining binding at 1 µM (PHKG2): 51%
- IC50 (DYRK1): < 100 nM

Compound: CNc1nc(Nc2ccc(P3(=O)CCN(C4CC4)CC3)cc2OC)nc2[nH]cc(C(F)(F)F)c12 [Example 411, 1-cyclopropyl-4-(3-methoxy-4-((4-(methylamino)-5-(trifluoromethyl)-7H-pyrrolo[2,3-d]pyrimidin-2-yl)amino)phenyl)-1,4-azaphosphinane-4-oxide]
- remaining binding at 1 µM (DYRK1A): 0.2%
- remaining binding at 1 µM (CLK3): 21%
- remaining binding at 1 µM (CSNK1E): 31%
- remaining binding at 1 µM (CLK4): 1.4%
- remaining binding at 1 µM (PYK2): 13%
- remaining binding at 1 µM (LRRK2 [1]): 1.9%
- remaining binding at 1 µM (PHKG2): 2.5%

Compound: COCCNc1nc(Nc2ccc(C(=O)N3CCN(C4COC4)CC3)c3c2OCCO3)nc2[nH]cc(C(F)(F)F)c12 [Example 403, (8-((4-((2-methoxyethyl)-amino)-5-(trifluoromethyl)-7H-pyrrolo[2,3-d]pyrimidin-2-yl)amino)-2,3-dihydrobenzo[b] [1,4]dioxin-5-yl) (4-(oxetan-3-yl)piperazin-1-yl)methanone]
- GI50 (THP-1 cells): 40400 nM

Compound: COc1cc(S(=O)(=O)N2CCC(N3C[C@H]4C[C@@H]3CO4)CC2)ccc1Nc1nc(C2CC2)c2c(C(F)(F)F)c[nH]c2n1 [Example 473, N-(4-((4-((1R,4R)-2-oxa-5-azabicyclo[2.2.1]heptan-5-yl)piperidin-1-yl)sulfonyl)-2-methoxyphenyl)-4-cyclopropyl-5-(trifluoromethyl)-7H-pyrrolo[2,3-d]pyrimidin-2-amine]
- IC50 (CLK1): < 100 nM
- IC50 (LRRK2 [2]): < 100 nM
- IC50 (DYRK1): < 100 nM

Compound: COc1cc(S(=O)(=O)N2CCC(N3CCOCC3)CC2)ccc1Nc1nc(C2CC2)c2c(C#N)c[nH]c2n1 [Example 224, 4-cyclopropyl-2-((2-methoxy-4-((4-morpholinopiperidin-1-yl)sulfonyl)phenyl)amino)-7H-pyrrolo[2,3-d]pyrimidine-5-carbonitrile]
- IC50 (DYRK1): < 100 nM

Compound: COCCNc1nc(Nc2ccc(C(=O)N3CCC(N4CCOCC4)CC3)c3c2OCC3)nc2[nH]cc(C#N)c12 [Example 359, 4-((2-methoxy-ethyl)ami-no)-2-((4-(4-morpholino-piperidine-1-carbonyl)-2,3-dihydro-benzofuran-7-yl)amino)-7H-pyrrolo[2,3-d]pyrimidine-5-carbonitrile]
- GI50 (THP-1 cells): 13600 nM

Compound: CCCNc1nc(Nc2ccc(S(=O)(=O)N3CCC(N4CCOCC4)CC3)cc2OC)nc2[nH]cc(C(F)(F)F)c12 [Example 161, N^2-(2-methoxy-4-((4-morpholinopiperidin-1-yl)sulfonyl)phenyl)-N^4-propyl-5-(trifluoromethyl)-7H-pyrrolo[2,3-d]pyrimidine-2,4-diamine]
- IC50 (CLK1): < 100 nM
- remaining binding at 1 µM (DYRK1A): 2%
- remaining binding at 1 µM (CLK3): 11%
- remaining binding at 1 µM (CSNK1E): 12%
- GI50 (SHP-77): 301 to 1000 nM
- remaining binding at 1 µM (CLK4): 0.65%
- remaining binding at 1 µM (PYK2): 1.3%
- remaining binding at 1 µM (LRRK2 [1]): 1%
- remaining binding at 1 µM (PHKG2): 21%
- IC50 (DYRK1): < 100 nM

Compound: O=C(c1ccc(Nc2nc(C3CC3)c3c(C(F)(F)F)c[nH]c3n2)c2c1OCCO2)N1CCC(N2CCOCC2)CC1 [Example 228, (8-((4-cyclopropyl-5-(trifluoromethyl)-7H-pyrrolo[2,3-d]pyrimidin-2-yl)amino)-2,3-dihydrobenzo[b][1,4]dioxin-5-yl)(4-morpholinopiperidin-1-yl)methanone]
- remaining binding at 1 µM (DYRK1A): 0.5%
- remaining binding at 1 µM (CLK3): 25%
- remaining binding at 1 µM (CSNK1E): 40%
- remaining binding at 1 µM (CLK4): 0.05%
- remaining binding at 1 µM (PYK2): 22%
- remaining binding at 1 µM (LRRK2 [1]): 0.3%
- remaining binding at 1 µM (PHKG2): 5.5%
- IC50 (DYRK1): < 100 nM

From US20230066011A1, “PYRROLOPYRIMIDINE DERIVATIVE, AND PHARMACEUTICAL COMPOSITION FOR PREVENTING OR TREATING PROTEIN KINASE-RELATED DISEASE COMPRISING SAME AS ACTIVE INGREDIENT” (VORONOI CO., LTD., priority 2019, published 2023)
